Laboratory results as given in patent US20230381154A1, “TREATMENT OF BREAST CANCER USING COMBINATION THERAPIES COMPRISING GDC-9545 AND ABEMACICLIB OR RIBOCICLIB” (Genentech, Inc., priority 2021, published 2023).
Each block holds one compound with its values, some of them ahead of it.

Key:
[1] = system: xenograft models; assay: xenograft models, efficacy; assay type: in vivo; settings: fulvestrant dosed according to a clinically relevant dosing scheme
Excerpt: (§1) Furthermore, the lower plasma protein binding of GDC-9545 provides higher free concentration of GDC-9545 than fulvestrant.

[2] = system: ER+ metastatic breast cancer; settings: frontline patients, NCT01602380; cited from earlier work
[3] = system: ESR1-mutant; assay: in vitro cell and biochemical assays, ESR1-mutant context
Excerpt: as §1

[4] = human steady-state total drug exposure, GDC-9545 versus fulvestrant; assay type: in vivo; settings: GDC-9545 30 mg QD versus fulvestrant 500 mg IM monthly
Excerpt: as §1

[5] = biological target: T1, wild-type ER (Homo sapiens, UniProt P03372); assay: in vitro cell and biochemical assays, wild-type context
T1 sequence (P03372 1-595): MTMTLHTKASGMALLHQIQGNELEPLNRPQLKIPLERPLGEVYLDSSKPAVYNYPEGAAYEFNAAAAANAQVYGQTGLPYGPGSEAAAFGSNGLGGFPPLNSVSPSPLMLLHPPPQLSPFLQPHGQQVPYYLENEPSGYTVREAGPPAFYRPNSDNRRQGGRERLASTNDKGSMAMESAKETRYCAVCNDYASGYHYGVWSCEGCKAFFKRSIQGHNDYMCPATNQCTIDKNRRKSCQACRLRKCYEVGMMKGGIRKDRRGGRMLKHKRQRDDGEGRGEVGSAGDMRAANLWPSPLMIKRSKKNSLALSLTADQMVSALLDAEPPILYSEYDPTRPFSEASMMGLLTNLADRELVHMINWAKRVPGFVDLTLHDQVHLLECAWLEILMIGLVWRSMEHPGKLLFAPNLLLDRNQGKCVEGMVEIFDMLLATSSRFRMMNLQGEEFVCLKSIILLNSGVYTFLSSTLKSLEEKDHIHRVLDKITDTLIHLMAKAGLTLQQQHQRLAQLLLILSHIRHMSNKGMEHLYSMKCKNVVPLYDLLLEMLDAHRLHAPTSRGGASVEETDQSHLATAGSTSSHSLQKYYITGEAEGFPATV
Excerpt: as §1

[6] = plasma protein binding and free concentration, GDC-9545 versus fulvestrant; assay type: in vitro ADME
Excerpt: as §1

[7] = system: endocrine-resistant tumors; settings: cited from earlier work
[8] = biological target: CDK4 (Homo sapiens, UniProt P11802); settings: cited from earlier work
Sequence of CDK4 (P11802 whole entry): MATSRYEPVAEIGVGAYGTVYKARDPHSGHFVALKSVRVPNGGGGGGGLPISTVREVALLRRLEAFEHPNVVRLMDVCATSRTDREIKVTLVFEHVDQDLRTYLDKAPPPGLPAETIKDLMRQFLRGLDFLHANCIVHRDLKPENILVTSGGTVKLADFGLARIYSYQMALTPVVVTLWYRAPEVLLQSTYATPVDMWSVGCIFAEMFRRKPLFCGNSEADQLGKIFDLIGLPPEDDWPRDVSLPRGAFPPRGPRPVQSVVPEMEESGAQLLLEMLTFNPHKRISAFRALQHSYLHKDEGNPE
Sequence of CDK4 (P24385 whole entry partner): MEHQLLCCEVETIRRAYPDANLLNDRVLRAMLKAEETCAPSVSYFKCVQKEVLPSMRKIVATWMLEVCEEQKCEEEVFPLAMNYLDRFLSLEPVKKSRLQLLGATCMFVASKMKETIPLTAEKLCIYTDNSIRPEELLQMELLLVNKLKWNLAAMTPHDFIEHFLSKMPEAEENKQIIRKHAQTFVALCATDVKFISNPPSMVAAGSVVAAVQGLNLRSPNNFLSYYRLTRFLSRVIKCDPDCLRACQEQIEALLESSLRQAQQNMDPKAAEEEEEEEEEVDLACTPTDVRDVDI

Compound: C[C@]12CC[C@@H]3c4ccc(O)cc4C[C@@H](CCCCCCCCC[S+]([O-])CCCC(F)(F)C(F)(F)F)[C@H]3[C@@H]1CC[C@@H]2O (stereo partly drawn) [Fulvestrant]
efficacy in xenograft models compared with GDC-9545 [1]: less efficacious
clinical benefit versus anastrozole [2]: benefit over anastrozole

steady-state total drug exposure relative to fulvestrant [4]: approximately 10 fold
potency relative to fulvestrant [5]: up to 10 times
free concentration compared with fulvestrant [6]: higher
plasma protein binding compared with fulvestrant [6]: lower
Compound: C[C@@H]1Cc2c([nH]c3ccccc23)[C@@H](c2c(F)cc(NC3CN(CCCF)C3)cc2F)N1CC(F)(F)CO [GDC-9545, 3-((1R,3R)-1-(2,6-difluoro-4-((1-(3-fluoropropyl)azetidin-3-yl)amino)phenyl)-3-methyl-1,3,4,9-tetrahydro-2H-pyrido[3,4-b]indol-2-yl)-2,2-difluoropropan-1-ol]
potency relative to fulvestrant [3]: up to 10 times

Compound: (2-Pyrimidinamine, N-[5-[(4-ethyl-1-piperazinyl)methyl]-2-pyridinyl]-5-fluoro-4-[4-fluoro-2-methyl-1-(1-methylethyl)-1H-benzimidazol-6-yl] [abemaciclib]
single-agent activity [7]: single-agent activity
selectivity CDK4 versus CDK6 [8]: more selective for CDK4 than CDK6
